Data set [1] deals with REL cells. Nature of the data set: Differentiation culture of REL cells with inducer, β-globin gene family expression by real-time PCR. Format: cell-based, rat. The settings on record: 1 mM HMBA. Here is the method: (§1) The percentage of expression of the β-globin gene family expressed in cells of the above cell population was checked by real-time PCR. The floating cell population-containing medium at Day 10, 14, or 18 after the start of suspension culture (step (1)) was centrifuged for 5 min at 1000 rpm in a centrifuge (CF8DL; manufactured by Koki Holdings Co., Ltd.) to remove the supernatant. The resulting cells were washed with PBS (manufactured by Thermo Fisher Scientific, Inc.), centrifuged for 3 min at 7500 rpm in a centrifuge (centrifuge 5424; manufactured by Eppendorf, Inc.), and then subjected to total RNA extraction from the cells using an RNeasy Micro Kit (manufactured by QIAGEN, Inc.). The resulting total RNA was subjected to reverse transcription using SuperScript III (manufactured by Thermo Fisher Scientific, Inc.). Subsequently, the resulting cDNA was used as a template to perform real-time PCR by using TaqMan probes (manufactured by Thermo Fisher Scientific, Inc.) and a TaqMan Fast Advanced Master Mix (manufactured by Thermo Fisher Scientific, Inc.) in a 96-well plate under Fast PCR conditions according to the instruction in the package insert. The TaqMan probes used were human probes designated in Table 2.
(§2) The gene product containing a TaqMan probe target sequence for each member of the β-globin gene family, namely ε-globin, γ-globin, or β-globin, was used to draw a standard curve. Then, the mRNA copy number for each β-globin gene family member expressed was quantified. The value obtained by dividing the copy number for each β-globin gene family member expressed by the total β-globin gene family copy number was shown as the percentage of expression of each β-globin gene family member. The production of embryonic erythroblast-containing cell population and the analysis by real-time PCR were independently triplicated to calculate the average and the standard error.
REL cells, rat erythroleukemia cells, (obtained from Institute of Molecular Genetics and Genetic Engineering (Prof. Popovic Serbia)) were used as other hematopoietic cells to check a change in expression of ε-globin gene. REL cells were cultured and maintained as follows. RPMI medium (Roswell Park Memorial Institute 1640; manufactured by Thermo Fisher Scientific, Inc.) containing […] FBS (manufactured by Corning, Inc.) and 1% penicillin-streptomycin (manufactured by Sigma-Aldrich Co. LLC) (hereinafter, referred to as “REL medium”) was used, and the cells were subjected to suspension culture on a low-adherent 6-cm dish (manufactured by Sumitomo Bakelite Co., Ltd.). The floating cell-containing medium was collected once every 2 days, and centrifuged for 5 min at 1000 rpm in a centrifuge (SCT5BA; manufactured by Koki Holdings Co., Ltd.) to remove the supernatant. The REL cells were suspended in 5 mL of REL medium and seeded at 5×10^5 cells per dish, and cultured under conditions at 37° C. and 5% CO2.
An inducer (hexamethylene bisacetamide: HMBA) was added to REL cells to check a change in expression of ε-globin over time. For differentiation culture of REL cells, the medium used was REL medium containing HMBA (at a final concentration of 1 mM; manufactured by Sigma-Aldrich Co. LLC.). The REL cells were suspended in 5 mL of the above medium and seeded at 5×10^5 cells per low-adherent 6-cm dish (manufactured by Sumitomo Bakelite Co., Ltd.), and then cultured under conditions at 37° C. and 5% CO2. The floating cell-containing medium was collected at Day 0, 2, 4, or 8 after the start of differentiation culture, and centrifuged for 5 min at 1000 rpm in a centrifuge (SCT5BA; manufactured by Koki Holdings Co., Ltd.) to remove the supernatant.
Like the evaluation protocol by real-time PCR in Example 1, the percentage of expression of each β-globin gene family member expressed in cells was determined by real-time PCR. […] Almost all of the β-globin gene family were an adult erythroblast marker β-globin gene under any of the conditions.
On the technique in general: Real-time PCR tracks product formation cycle by cycle.

Data set [2] concerns embryonic erythroblast-containing cell population produced from human iPS cells. Nature of the data set: Compound test using embryonic erythroblast-containing cell population produced from human iPS cells (heme, PPIX by LC-MS, viable cell count, viability). Format: cell-based. To be noted: DHA 0.5 or 1 μM, SA 10 or 30 μM, Day 18 (Day 8 after start of step (C)); for viable cell count: FIG. 12C; for viability of cells: FIG. 12D. Here is the method: The procedure illustrated in FIG. 11 was used to conduct a compound test using an embryonic erythroblast-containing cell population produced from human iPS cells. Differentiation of human iPS cells was induced by substantially the same procedure as in Example 1 to produce an embryonic erythroblast-containing cell population at Day 10 after the start of suspension culture (step (A)) (Step (A) and Step (B)). The cells were centrifuged for 5 min at 1000 rpm in a centrifuge (CF8DL; manufactured by Koki Holdings Co., Ltd.) to remove the supernatant. Next, STEMdiff+B medium was added to the precipitate. Subsequently, the cells were suspended and seeded at 2×10^5 cells in 1.5 mL of medium per well of a […] 6-well plate (manufactured by Corning, Inc.). Then, suspension culture was started (step (C) was started). To the medium at that time was added, as a test compound, dihydroartemisinin (hereinafter, referred to as “DHA”) (at a final concentration of 0.5 μM or 1 μM) or succinylacetone (hereinafter, referred to as “SA”) (at a final concentration of 10 μM or 30 μM). As a solvent control, DMSO was added.
At Day 18 (Day 8 after the start of step (C)) after the start of suspension culture (step (A)), the resulting cell population-containing medium was collected from the 6-well plate. Next, 0.4×10^5 cells to 1×10^5 cells were pipetted into an Eppendorf tube, and centrifuged for 3 min at 7500 rpm in a centrifuge (centrifuge 5424; manufactured by Eppendorf, Inc.) to remove the supernatant and give a cell pellet. The concentration of heme or protoporphyrin IX (hereinafter, referred to as “PPIX”) included in this cell pellet was quantified using liquid chromatography-mass spectrometry (LC-MS) (step (D)). A change in the concentration of heme or PPIX by addition of a test compound was examined to be able to evaluate how the test compound affected the heme biosynthesis pathway. In addition, the number of cells collected after the culture was counted to determine viability.
The concentration of heme or PPIX was represented in weight per 10^6 cells (ng/10^6 cells). DHA or SA, which is known to inhibit heme synthesis, caused a decrease in the heme concentration at Day 18 (Day 8 after the start of step (C)) after the start of suspension culture (step (A)) when compared to a solvent control (FIG. 12A). […] A hypothesis that DHA can induce anemia by inhibiting the most downstream ferrochelatase has been proposed (Clark et al. (2018) Birth Defects Research 110: 553-578). […] In addition, DHA or SA decreased the viable cell count and viability of cells included in the cell population (FIGS. 12C and D). In Example 1, the cell population included embryonic erythroblasts at a high percentage.

In data set [3] the target is T1, aminolevulinic acid dehydrogenase (Homo sapiens, UniProt P13716).
T1 sequence (P13716 1-330): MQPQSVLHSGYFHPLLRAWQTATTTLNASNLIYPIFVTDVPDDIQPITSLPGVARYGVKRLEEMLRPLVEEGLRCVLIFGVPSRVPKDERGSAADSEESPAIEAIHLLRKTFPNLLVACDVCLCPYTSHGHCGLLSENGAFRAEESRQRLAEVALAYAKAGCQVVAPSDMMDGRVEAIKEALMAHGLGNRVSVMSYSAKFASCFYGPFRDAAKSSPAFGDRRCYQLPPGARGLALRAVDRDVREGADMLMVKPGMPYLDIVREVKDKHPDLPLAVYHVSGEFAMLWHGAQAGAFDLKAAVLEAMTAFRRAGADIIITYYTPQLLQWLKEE
To be noted: Sassa et al. (1983); cited from earlier work.

In data set [4] the test system is K562 cells. Kind of data set: Differentiation culture of K562 cells with inducer, β-globin gene family expression by real-time PCR. Format: cell-based, human. To be noted: 1 mM sodium butyrate. Here is the method:
as §1, §2
Human chronic myeloid leukemia-derived cell line K562 cells (obtained from Health Science Research Resources Bank) were used as other hematopoietic cells to check expression of ε-globin. K562 cells were cultured and maintained as follows. RPMI medium (Roswell Park Memorial Institute 1640; manufactured by Thermo Fisher Scientific, Inc.) containing 10% FBS (manufactured by Corning, Inc.) and 1% penicillin-streptomycin (manufactured by Sigma-Aldrich Co. LLC) (hereinafter, referred to as “K562 medium”) was used, and the cells were subjected to suspension culture on a low-adherent 6-cm dish (manufactured by Sumitomo Bakelite Co., Ltd.). The floating cell-containing medium was collected once every 7 days, and centrifuged for 5 min at 1000 rpm in a centrifuge (SCTSBA; manufactured by Koki Holdings Co., Ltd.) to remove the supernatant. The K562 cells were suspended in 5 mL of K562 medium and seeded at 5×10^5 cells per dish, and cultured under conditions at 37° C. and 5% CO2.
It has been known that addition of an inducer (sodium butyrate) causes an increase in the expression of εs-globin in K562 cells. Thus, a change in expression of ε-globin after addition of sodium butyrate was checked over time. For differentiation culture of K562 cells, K562 medium containing 1 mM sodium butyrate (manufactured by Sigma-Aldrich Co. LLC) was used. The cells were suspended in 5 mL of the above medium and seeded at 5×10^5 cells per low-adherent 6-cm dish, and cultured under conditions at 37° C. and 5% CO2. The floating cell-containing medium was collected at Day 0, 2, 4, or 8 after the start of differentiation culture, and centrifuged for 5 min at 1000 rpm in a centrifuge (SCTSBA; manufactured by Koki Holdings Co., Ltd.) to remove the supernatant.
Like the evaluation protocol by real-time PCR in Example 1, the percentage of expression of each β-globin gene family member expressed in cells was determined by real-time PCR. […] About 30% or less of the β-globin gene family were an embryonic erythroblast marker ε-globin gene under any of the conditions.

Data set [5] has as its system K562 cells. To be noted: known from the art; cited from earlier work.
Where [6] appears, read: Day 2 of differentiation culture.
[7] abbreviates: Day 4 of differentiation culture.
Setting [8] is: Day 8 of differentiation culture.

On to `CC(=O)NCCCCCCNC(C)=O` [HMBA, hexamethylene bisacetamide], for which, in data set [1] (setting [6]), the “Relative expression level of β-Globin (Hbb) in the β-globin gene family” value is 100 ± 0.0%, the “Relative expression level of γ-Globin (Hbg1) in the β-globin gene family” value came to 0 ± 0.0% and the “Relative expression level of ε-Globin (Hbe1) in the β-globin gene family” value was 0 ± 0.0%. Also, in data set [1] (setting [7]), the “Relative expression level of β-Globin (Hbb) in the β-globin gene family” value is 100 ± 0.0%, the “Relative expression level of γ-Globin (Hbg1) in the β-globin gene family” value came out at 0 ± 0.0% and the “Relative expression level of ε-Globin (Hbe1) in the β-globin gene family” value was 0 ± 0.0%. In data set [1] (setting [8]), the “Relative expression level of β-Globin (Hbb) in the β-globin gene family” value worked out at 99 ± 0.2%, the “Relative expression level of γ-Globin (Hbg1) in the β-globin gene family” value came out at 1 ± 0.1% and the “Relative expression level of ε-Globin (Hbe1) in the β-globin gene family” value worked out at 0 ± 0.0%.
Take `C[C@H]1[C@@H](O)O[C@@H]2O[C@@]3(C)CC[C@H]4[C@H](C)CC[C@@H]1[C@@]24OO3` [DHA, dihydroartemisinin]: in data set [2], the viable cell count entry is “decreased” and the viability of cells result is listed as “decreased”.
Turning to `CC(=O)CC(=O)CCC(=O)O` [SA, succinylacetone], in data set [2], the viable cell count result is on record as “decreased” and the viability of cells entry is on record as “decreased”. Besides, the “heme concentration compared to a solvent control” value in data set [2] (LC-MS, ng/10^6 cells, FIG. 12A) is recorded as “decrease”. The “PPIX (protoporphyrin IX) concentration” value in data set [2] (LC-MS, ng/10^6 cells, FIG. 12B) is reported as “did not largely affect”. Also, the “inhibition of aminolevulinic acid dehydrogenase, upstream in the heme biosynthesis pathway” value in data set [3] is given as “inhibits”.
In the case of `CCCC(=O)[O-].[Na+]` [sodium butyrate], in data set [4] (setting [6]), the “Relative expression level of β-Globin (HBB) in the β-globin gene family” value is given as 0 ± 0.0%, the “Relative expression level of γ-Globin (HBG2/1) in the β-globin gene family” value stood at 75 ± 1.6% and the “Relative expression level of ε-Globin (HBE1) in the β-globin gene family” value turned out to be 25 ± 1.6%. Also, in data set [4] (setting [7]), the “Relative expression level of β-Globin (HBB) in the β-globin gene family” value turned out to be 0 ± 0.0%, the “Relative expression level of γ-Globin (HBG2/1) in the β-globin gene family” value is reported as 73 ± 1.3% and the “Relative expression level of ε-Globin (HBE1) in the β-globin gene family” value is given as 27 ± 1.3%. Further, in data set [4] (setting [8]), the “Relative expression level of β-Globin (HBB) in the β-globin gene family” value stood at 0 ± 0.0%, the “Relative expression level of γ-Globin (HBG2/1) in the β-globin gene family” value came to 70 ± 1.9% and the “Relative expression level of ε-Globin (HBE1) in the β-globin gene family” value is recorded as 30 ± 1.9%. Besides, in data set [5], the “expression of ε-globin in K562 cells after addition of inducer” value is “increase”.

Values taken from patent publication US12258583B2, “Embryonic erythroblast-containing cell population and method for producing same, cell culture composition, and compound test method” (SUMITOMO CHEMICAL COMPANY, LIMITED, priority 2018, dated 2025).
